Test results: US6914045B2, “Glycopeptide antibiotics” (Wyeth Holdings Corporation, priority 2001, dated 2005)
Converted amounts (≈) assume the structure as drawn.

Columns and labels:
Assay in all cases: in vitro antibacterial evaluation, MIC by broth dilution
Format in all cases: cell-based
Enterococcus sp. = details: broth dilution, 18 hours at 35° C.
Outline: (§1)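 MIC = lowest antibiotic concentration preventing visible growth; inoculum 5×10^5 CFU/mL; drug range 64-0.06 μg/mL; Muller-Hinton II […]; NCCLS M7-A2 guidance.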

Staphylococcus sp. = details: broth dilution, 18 hours at 35° C.
Outline: as §1

Escherichia coli = details: 18 hours at 35° C.
Outline: as §1

Streptococcus sp. = details: broth dilution, 18 hours at 35° C.
Outline: as §1

MIC Enterococcus avium (GC 4558) (Enterococcus sp.; Enterococcus avium (GC 4558)): 16 µg/mL (≈ 11.5 µM)
MIC Enterococcus faecalis (ATCC 29212) (Enterococcus sp.; Enterococcus faecalis (ATCC 29212)): 8 µg/mL (≈ 5.76 µM)
MIC Enterococcus faecalis (GC 2242) (Enterococcus sp.; Enterococcus faecalis (GC 2242)): 8 µg/mL (≈ 5.76 µM)
MIC Enterococcus faecalis (GC 2691) (Enterococcus sp.; Enterococcus faecalis (GC 2691)): 16 µg/mL (≈ 11.5 µM)
MIC Enterococcus faecalis (GC 3059) (Enterococcus sp.; Enterococcus faecalis (GC 3059)): 16 µg/mL (≈ 11.5 µM)
MIC Enterococcus faecalis (GC 4552) (Enterococcus sp.; Enterococcus faecalis (GC 4552)): 8 µg/mL (≈ 5.76 µM)
MIC Enterococcus faecalis (GC 4553) (Enterococcus sp.; Enterococcus faecalis (GC 4553)): 16 µg/mL (≈ 11.5 µM)
MIC Enterococcus faecalis (GC 4554) (Enterococcus sp.; Enterococcus faecalis (GC 4554)): 16 µg/mL (≈ 11.5 µM)
MIC Enterococcus faecalis (GC 6189) (Enterococcus sp.; Enterococcus faecalis (GC 6189)): 8 µg/mL (≈ 5.76 µM)
MIC Enterococcus faecium (GC 2243) (Enterococcus sp.; Enterococcus faecium (GC 2243)): 8 µg/mL (≈ 5.76 µM)
MIC Enterococcus faecium (GC 4556) (Enterococcus sp.; Enterococcus faecium (GC 4556)): 8 µg/mL (≈ 5.76 µM)
MIC Enterococcus faecium (GC 4557) (Enterococcus sp.; Enterococcus faecium (GC 4557)): 8 µg/mL (≈ 5.76 µM)
MIC Enterococcus faecalis (ATCC 29212) (Enterococcus sp.; strain ATCC 29212): 8 µg/mL (≈ 5.76 µM)
MIC Enterococcus faecalis (GC 2242) (Enterococcus sp.; strain GC 2242): 8 µg/mL (≈ 5.76 µM)
MIC Enterococcus faecium (GC 2243) (Enterococcus sp.; strain GC 2243): 8 µg/mL (≈ 5.76 µM)
MIC Enterococcus faecalis (GC 2691) (Enterococcus sp.; strain GC 2691): 16 µg/mL (≈ 11.5 µM)
MIC Enterococcus faecalis (GC 3059) (Enterococcus sp.; strain GC 3059): 16 µg/mL (≈ 11.5 µM)
MIC Enterococcus faecalis (GC 4552) (Enterococcus sp.; strain GC 4552): 8 µg/mL (≈ 5.76 µM)
MIC Enterococcus faecalis (GC 4553) (Enterococcus sp.; strain GC 4553): 16 µg/mL (≈ 11.5 µM)
MIC Enterococcus faecalis (GC 4554) (Enterococcus sp.; strain GC 4554): 16 µg/mL (≈ 11.5 µM)
MIC Enterococcus faecium (GC 4556) (Enterococcus sp.; strain GC 4556): 8 µg/mL (≈ 5.76 µM)
MIC Enterococcus faecium (GC 4557) (Enterococcus sp.; strain GC 4557): 8 µg/mL (≈ 5.76 µM)
MIC Enterococcus avium (GC 4558) (Enterococcus sp.; strain GC 4558): 16 µg/mL (≈ 11.5 µM)
MIC Enterococcus faecalis (GC 6189) (Enterococcus sp.; strain GC 6189): 8 µg/mL (≈ 5.76 µM)
MIC Staphylococcus aureus (ATCC 29213) (Staphylococcus sp.): 8 µg/mL (≈ 5.76 µM)
MIC Staphylococcus aureus (GC 1131) (Staphylococcus sp.): 8 µg/mL (≈ 5.76 µM)
MIC Staphylococcus aureus (GC 3051) (Staphylococcus sp.): 8 µg/mL (≈ 5.76 µM)
MIC Staphylococcus aureus (GC 3053) (Staphylococcus sp.): 8 µg/mL (≈ 5.76 µM)
MIC Staphylococcus aureus (GC 4541) (Staphylococcus sp.): 4 µg/mL (≈ 2.88 µM)
MIC Staphylococcus aureus (GC 4542) (Staphylococcus sp.): 4 µg/mL (≈ 2.88 µM)
MIC Staphylococcus aureus (GC 4544) (Staphylococcus sp.): 8 µg/mL (≈ 5.76 µM)
MIC Staphylococcus aureus (GC 4545) (Staphylococcus sp.): 8 µg/mL (≈ 5.76 µM)
MIC Staphylococcus aureus (GC 1131) (Staphylococcus sp.; inoculum 5×10^5 CFU/mL, strain GC 1131): 8 µg/mL (≈ 5.76 µM)
MIC Staphylococcus aureus (ATCC 29213) (Staphylococcus sp.; strain ATCC 29213): 8 µg/mL (≈ 5.76 µM)
MIC Staphylococcus aureus (GC 3051) (Staphylococcus sp.; strain GC 3051): 8 µg/mL (≈ 5.76 µM)
MIC Staphylococcus aureus (GC 3053) (Staphylococcus sp.; strain GC 3053): 8 µg/mL (≈ 5.76 µM)
MIC Staphylococcus aureus (GC 4541) (Staphylococcus sp.; strain GC 4541): 4 µg/mL (≈ 2.88 µM)
MIC Staphylococcus aureus (GC 4542) (Staphylococcus sp.; strain GC 4542): 4 µg/mL (≈ 2.88 µM)
MIC Staphylococcus aureus-SMITH (GC 4543) (Staphylococcus sp.; strain GC 4543): 4 µg/mL (≈ 2.88 µM)
MIC Staphylococcus aureus (GC 4544) (Staphylococcus sp.; strain GC 4544): 8 µg/mL (≈ 5.76 µM)
MIC Staphylococcus aureus (GC 4545) (Staphylococcus sp.; strain GC 4545): 8 µg/mL (≈ 5.76 µM)
MIC Coagulase Negative Staphylococcus (GC 4547) (Staphylococcus sp.; strain GC 4547): 8 µg/mL (≈ 5.76 µM)
MIC Coagulase Negative Staphylococcus (GC 4548) (Staphylococcus sp.; strain GC 4548): 4 µg/mL (≈ 2.88 µM)
MIC Coagulase Negative Staphylococcus (GC 4549) (Staphylococcus sp.; strain GC 4549): 4 µg/mL (≈ 2.88 µM)
MIC Coagulase Negative Staphylococcus (GC 4551) (Staphylococcus sp.; strain GC 4551): 8 µg/mL (≈ 5.76 µM)
MIC Coagulase Negative Staphylococcus (GC 6257) (Staphylococcus sp.; strain GC 6257): 4 µg/mL (≈ 2.88 µM)
MIC Staphylococcus aureus-SMITH (GC 4543) (Staphylococcus sp.; strain SMITH GC 4543): 4 µg/mL (≈ 2.88 µM)
MIC Escherichia coli (ATCC 25922) (Escherichia coli; strain ATCC 25922): >64 µg/mL
MIC Escherichia coli (GC 4559) (Escherichia coli; strain GC 4559): >64 µg/mL
MIC Escherichia coli (GC 4560) (Escherichia coli; strain GC 4560): 8 µg/mL (≈ 5.76 µM)
MIC Streptococcus agalactiae (GC 4564) (Streptococcus sp.; Streptococcus agalactiae (GC 4564)): 2 µg/mL (≈ 1.44 µM)
MIC Streptococcus pneumoniae (ATCC 6301) (Streptococcus sp.; Streptococcus pneumoniae (ATCC 6301)): 1 µg/mL (≈ 0.72 µM)
MIC Streptococcus pneumoniae (GC 1894) (Streptococcus sp.; Streptococcus pneumoniae (GC 1894)): 1 µg/mL (≈ 0.72 µM)
MIC Streptococcus pneumoniae (GC 4565) (Streptococcus sp.; Streptococcus pneumoniae (GC 4565)): 2 µg/mL (≈ 1.44 µM)
MIC Streptococcus pyogenes (GC 4563) (Streptococcus sp.; Streptococcus pyogenes (GC 4563)): 0.5 µg/mL (≈ 0.36 µM)
MIC Streptococcus pneumoniae (ATCC 6301) (Streptococcus sp.; strain ATCC 6301): 1 µg/mL (≈ 0.72 µM)
MIC Streptococcus pneumoniae (GC 1894) (Streptococcus sp.; strain GC 1894): 1 µg/mL (≈ 0.72 µM)
MIC Streptococcus pyogenes (GC 4563) (Streptococcus sp.; strain GC 4563): 0.5 µg/mL (≈ 0.36 µM)
MIC Streptococcus agalactiae (GC 4564) (Streptococcus sp.; strain GC 4564): 2 µg/mL (≈ 1.44 µM)
MIC Streptococcus pneumoniae (GC 4565) (Streptococcus sp.; strain GC 4565): 2 µg/mL (≈ 1.44 µM)
Structure (SMILES): CC(C)=CCCC1OCC2OC(OC3C(CO)OC(Oc4ccc(CC5NC(=O)C(C(C)c6ccccc6)NC(=O)CNC(=O)C(CO)NC(=O)C(C(O)C6CNC(=N)N6C6OC(CO)C(O)C(O)C6O)NC(=O)C(C(O)C6CNC(=N)N6)NC5=O)cc4)C(O)C3O)C(O)C(O)C2O1 (stereo not shown) [Example 123]
MIC Staphylococcus haemolyticus (GC 4546) (Staphylococcus sp.; strain GC 4546): 8 µg/mL (≈ 5.76 µM)
